The results in this text go back to ChEMBL document CHEMBL1147576, “Synthesis and evaluation of S-4-(3-thienyl)phenyl-alpha-methylacetic acid” (Bioorg Med Chem Lett, 2004).

One experiment has as its system Rattus norvegicus. The experiment can be described thus: Effective dose for Anti-inflammatory activity was determined by carrageenan induced rat hind paw edema model. It counts as functional. For orientation: The carrageenan paw model is a standard test of acute inflammation.
Experiment [1] concerns the target T1, Prostaglandin G/H synthase 1 (Ovis aries, UniProt P05979).
T1 sequence (P05979 whole entry): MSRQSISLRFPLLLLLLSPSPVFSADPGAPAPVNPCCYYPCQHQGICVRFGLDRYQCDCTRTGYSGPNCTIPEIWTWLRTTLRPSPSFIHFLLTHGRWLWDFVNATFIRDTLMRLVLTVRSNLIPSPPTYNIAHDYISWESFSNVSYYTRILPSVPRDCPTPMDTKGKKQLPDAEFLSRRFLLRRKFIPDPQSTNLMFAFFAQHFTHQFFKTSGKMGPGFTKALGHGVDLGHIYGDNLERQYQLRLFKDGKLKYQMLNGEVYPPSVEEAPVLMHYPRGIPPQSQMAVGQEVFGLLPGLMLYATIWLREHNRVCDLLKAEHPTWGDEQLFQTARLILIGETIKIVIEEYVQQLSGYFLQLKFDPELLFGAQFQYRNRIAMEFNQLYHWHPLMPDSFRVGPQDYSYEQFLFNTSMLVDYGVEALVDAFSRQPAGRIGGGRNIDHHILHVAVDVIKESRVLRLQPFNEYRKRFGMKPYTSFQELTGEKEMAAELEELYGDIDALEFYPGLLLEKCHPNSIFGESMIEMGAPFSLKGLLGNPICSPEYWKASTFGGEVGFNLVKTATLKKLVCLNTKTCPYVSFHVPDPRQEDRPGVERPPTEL
The experiment can be described thus: In vitro inhibitory concentration against ram seminal vesicle prostaglandin G/H synthase 1. Format: tissue-based.

Structures are written as SMILES.

Usually ED50 stands for the dose at which the effect has come halfway, by size or by number of responders. A high value points to weaker potency. For the compound `COc1ccc2cc(C(C)C(=O)O)ccc2c1` (configuration not stated), the ED50 in the experiment with Rattus norvegicus worked out at 2.35 mg/kg.

Usually IC50 stands for the concentration needed to halve the response being measured. With `C[C@H](C(=O)O)c1ccc(-c2ccsc2)cc1`, the half-inhibitory concentration (IC50) in experiment [1] was 45.2 µM. For the same compound, in the experiment with Rattus norvegicus, the ED50 stood at 1.85 mg/kg.

In turn, `CC(C(=O)O)c1ccc(-c2ccsc2)cc1` (configuration not stated) [ATLIPROFEN] displayed an ED50 in the experiment with Rattus norvegicus of 5.74 mg/kg.

`CC(C)Cc1ccc([C@H](C)C(=O)O)cc1` [DEXIBUPROFEN] returned a 50% effective dose (ED50) in the experiment on Rattus norvegicus of 7.08 mg/kg.

In the experiment on Rattus norvegicus, `CC(C)Cc1ccc(C(C)C(=O)O)cc1` (configuration not stated) [IBUPROFEN] displayed an ED50 of 33.2 mg/kg.

`COc1ccc2cc([C@H](C)C(=O)O)ccc2c1` [NAPROXEN] yielded a 50% effective dose (ED50) in the experiment on Rattus norvegicus of 0.99 mg/kg.
